The text below walks through data of US8999982B2, “Pharmaceutically active compounds as Axl inhibitors” (Lead Discovery Center GmbH, priority 2010, dated 2015).

In experiment [1] the target is T1, Axl (Homo sapiens (Human), UniProt P30530). Description: Cellular Axl phosphorylation assay. It is filed as cell-based. Particulars: HEK293 cells transfected with Axl cDNA, 1 hour incubation. Summed up:
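Transiently Axl-transfected HEK293 cells, with a vector-only negative control, were treated with compound for 1 hour on the day after medium change. Axl phosphorylation was quantified by mesoscale detection.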

Experiment [2] deals with T1, Axl. Description: Axl binding assay. On the procedure:
Binding of the tracer to the kinase is detected using an EU-labeled anti-tag antibody. […] Binding of an inhibitor to the kinase competes for binding with the tracer, resulting in a loss of FRET-signal. At first a compound according to formula (I) was diluted in 20 mM Hepes pH 8.0, 1 mM DTT, 10 mM MgCl2 and 0.01% Brij35.

Each structure is given as a SMILES string. pIC50: −log10 of the molar value. Some results are limits rather than exact numbers.

T1 sequence (P30530 26-894): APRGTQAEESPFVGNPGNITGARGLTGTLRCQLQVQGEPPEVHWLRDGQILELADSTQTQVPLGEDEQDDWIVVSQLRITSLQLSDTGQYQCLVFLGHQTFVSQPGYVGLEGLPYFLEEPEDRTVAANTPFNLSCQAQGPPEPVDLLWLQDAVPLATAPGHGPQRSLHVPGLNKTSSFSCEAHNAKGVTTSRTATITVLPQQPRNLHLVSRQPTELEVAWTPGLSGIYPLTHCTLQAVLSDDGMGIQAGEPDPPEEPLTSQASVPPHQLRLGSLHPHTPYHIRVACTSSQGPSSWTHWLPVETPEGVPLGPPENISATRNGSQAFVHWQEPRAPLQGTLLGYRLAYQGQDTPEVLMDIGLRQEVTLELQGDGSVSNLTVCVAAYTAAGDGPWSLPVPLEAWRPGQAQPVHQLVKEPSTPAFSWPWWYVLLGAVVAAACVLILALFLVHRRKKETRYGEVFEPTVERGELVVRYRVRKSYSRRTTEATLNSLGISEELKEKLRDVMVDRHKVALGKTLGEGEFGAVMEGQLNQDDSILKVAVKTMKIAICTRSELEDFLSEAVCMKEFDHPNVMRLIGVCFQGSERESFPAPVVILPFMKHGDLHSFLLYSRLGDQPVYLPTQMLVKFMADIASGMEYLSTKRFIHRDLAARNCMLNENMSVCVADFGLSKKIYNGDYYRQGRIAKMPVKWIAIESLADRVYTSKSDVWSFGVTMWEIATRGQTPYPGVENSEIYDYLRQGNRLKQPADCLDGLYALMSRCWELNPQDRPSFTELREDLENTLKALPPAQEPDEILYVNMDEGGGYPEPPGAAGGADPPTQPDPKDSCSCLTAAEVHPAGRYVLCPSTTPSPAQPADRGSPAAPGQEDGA

Regarding `CCOc1cn(-c2ccc(F)cc2O)nc1C(=O)Nc1ccc(Oc2ccnc3cc(OC)c(OC)cc23)cn1` [Example 104, N-(5-((6,7-dimethoxyquinolin-4-yl)oxy)pyridin-2-yl)-4-ethoxy-1-(4-fluoro-2-hydroxyphenyl)-1H-pyrazole-3-carboxamide], the pIC50 on Axl [1] and on Axl [2] was above 6.30 throughout.
`CCOc1cn(-c2cccnc2)nc1C(=O)Nc1ccc(Oc2ccnc3cc(OC)c(OC)cc23)c(F)c1` [Example 105, N-(4-((6,7-dimethoxyquinolin-4-yl)oxy)-3-fluorophenyl)-4-ethoxy-1-(pyridin-3-yl)-1H-pyrazole-3-carboxamide]: the pIC50 against Axl [1] and on Axl [2] was above 6.30 each time.
